The record followed here is the supplement of paper PMC10307832.

Assay in all cases: relative viability (nuclei count vs DMSO), 5 days (fraction); higher = more cells survive
Compound in the assay “Irinotecan + Luminespib”: CCc1c2c(nc3ccc(OC(=O)N4CCC(N5CCCCC5)CC4)cc13)-c1cc3c(c(=O)n1C2)COC(=O)[C@]3(O)CC [Irinotecan] + CCNC(=O)c1noc(-c2cc(C(C)C)c(O)cc2O)c1-c1ccc(CN2CCOCC2)cc1 [Luminespib] (partner 0.01 µM)
In a few lines: (§1)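 Relative viability divides the nuclei count in treated wells by that in vehicle wells. Lung cancer cell lines were seeded in 1536-well plates, dosed by pin tool the next day, and fixed and stained after 5 days in one step with final 0.05% Triton X-100, 1% formaldehyde and 1 ug/ml Hoechst. Dosing was a single drug or a fixed anchor-drug dose plus five library-drug doses (not always all listed) in √10 steps, and values are medians of duplicate plates imaged at 4×.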

Compound in the assay “Irinotecan + Crizotinib”: CCc1c2c(nc3ccc(OC(=O)N4CCC(N5CCCCC5)CC4)cc13)-c1cc3c(c(=O)n1C2)COC(=O)[C@]3(O)CC [Irinotecan] + C[C@@H](Oc1cc(-c2cnn(C3CCNCC3)c2)cnc1N)c1c(Cl)ccc(F)c1Cl [Crizotinib] (partner 1 µM)
A digest of the protocol: as §1

Compound in the assay “RU-SKI 43 + Phenformin”: CC[C@@H](C)CNCC(=O)N1CCC2=C([C@@H]1COC3=CC=CC(=C3)C)C=CS2 [RU-SKI 43] + N=C(N)NC(=N)NCCc1ccccc1 [Phenformin] (partner 250 µM)
In a few lines:
as §1

Compound in the assay “MK-8033 + Lapatinib”: Cn1cc(-c2cnc3ccc4ccc(CS(=O)(=O)NCc5ccccn5)cc4c(=O)c3c2)cn1 [MK-8033] + CS(=O)(=O)CCNCc1ccc(-c2ccc3ncnc(Nc4ccc(OCc5cccc(F)c5)c(Cl)c4)c3c2)o1 [Lapatinib] (partner 2 µM)
In a few lines: as §1

Consider SK-MES-1, for which the relative viability was 0.818 with Irinotecan + Luminespib (first compound 0.6325 µM); 0.521 in the assay with Irinotecan + Luminespib (first compound 2 µM); 0.324 with Irinotecan + Luminespib (first compound 6.325 µM); 0.234 with Irinotecan + Luminespib (first compound 20 µM); 0.93 with Irinotecan + Crizotinib (first compound 0.6325 µM); 0.767 in the assay with Irinotecan + Crizotinib (first compound 2 µM). Further, the relative viability amounted to 0.272 in the assay with Irinotecan + Crizotinib (first compound 6.325 µM); 0.298 with Irinotecan + Crizotinib (first compound 20 µM); 0.645 with RU-SKI 43 + Phenformin (first compound 0.1 µM); 0.778 in the assay with RU-SKI 43 + Phenformin (first compound 0.3162 µM); 0.725 with RU-SKI 43 + Phenformin (first compound 1 µM); 0.716 with RU-SKI 43 + Phenformin (first compound 3.162 µM). Further, the relative viability was 0.63 with RU-SKI 43 + Phenformin (first compound 10 µM); 0.433 in the assay with MK-8033 + Lapatinib (first compound 0.02 µM); 0.437 with MK-8033 + Lapatinib (first compound 0.06325 µM); 0.478 in the assay with MK-8033 + Lapatinib (first compound 0.2 µM); 0.459 with MK-8033 + Lapatinib (first compound 0.6325 µM); 0.441 in the assay with MK-8033 + Lapatinib (first compound 2 µM).

Regarding SW 1573, the relative viability in the assay with Irinotecan + Luminespib (first compound 0.6325 µM) amounted to 0.232; with Irinotecan + Luminespib (first compound 2 µM), 0.269; in the assay with Irinotecan + Luminespib (first compound 6.325 µM) it was 0.195; in the assay with Irinotecan + Luminespib (first compound 20 µM) it was 0.148; in the assay with Irinotecan + Crizotinib (first compound 0.6325 µM), 0.626; in the assay with Irinotecan + Crizotinib (first compound 2 µM), 0.43. Further, the relative viability with Irinotecan + Crizotinib (first compound 6.325 µM) turned out to be 0.189; in the assay with Irinotecan + Crizotinib (first compound 20 µM) it was 0.197; with RU-SKI 43 + Phenformin (first compound 0.1 µM), 0.432; with RU-SKI 43 + Phenformin (first compound 0.3162 µM), 0.35; in the assay with RU-SKI 43 + Phenformin (first compound 1 µM), 0.42; in the assay with RU-SKI 43 + Phenformin (first compound 3.162 µM), 0.381. Further, the relative viability stood at 0.31 with RU-SKI 43 + Phenformin (first compound 10 µM); 1.06 with MK-8033 + Lapatinib (first compound 0.02 µM); 1.09 with MK-8033 + Lapatinib (first compound 0.06325 µM); 0.976 with MK-8033 + Lapatinib (first compound 0.2 µM); 1.14 in the assay with MK-8033 + Lapatinib (first compound 0.6325 µM); 0.994 with MK-8033 + Lapatinib (first compound 2 µM).
